Patent publication US12721343B2, “Methods and uses of a mixture comprising alpha-cypermethrin and dinotefuran for controlling invertebrate pests in t” (BASF AGRO B.V., priority 2020, dated 2026)

Key:
Assay type in all cases: in vivo
[1] = test system: Southern Chinch Bug (Blissus insularis, BLISIN); experiment: Field trial against Southern chinch bug, nymph counts by vacuum sampling; conditions: for % Control / % activity: alpha-cypermethrin 95, dinotefuran 600, combination 95 + 380 g ai/ha; for Nymph Counts (average number of Chinch bug nymphs per treatment per sample): 28 days after treatment, alpha-cypermethrin 95, dinotefuran 600, combination 95 + 380 g ai/hectare
From the text: (§1) Synergism can be described as an interaction where the combined effect of two or more compounds is greater than the sum of the individual effects of each of the compounds. The presence of a synergistic effect in terms of percent control, between two mixing partners (X and Y) can be calculated using the Colby equation (Colby, S. R., 1967, Calculating Synergistic and Antagonistic Responses in Herbicide Combinations, Weeds, 15, 20-22):
Treatments were applied in a field with a natural infestation of Southern Chinch Bugs. The experiment was conducted with four replications, utilizing 3×3 m2 plots. The application was made in 813 liters per hectare spray volume.
The treatments consisted of an untreated check, and formulations containing either alpha-cypermethrin at a use rate of 95 grams ai/hectare, dinotefuran at 600 gram ai/hectare or a combination of alpha-cypermethrin and dinotefuran at 95+380 grams ai/hectare. Direct visual counts were made of larval chinch bugs in all stages of development after being mechanically vacuumed for 20 seconds from the surface of the turf. Chinch Bug abundance was measured using a commercially available lawn vacuum/blower combination machine by covering the vacuum (intake) orifice with mesh cloth and placing the intake on randomly within the turf plot and holding suction for […]. Samples were collected from each plot in an identical manner. After the sample was collected and the vacuum turned off, the captured contents of the mesh cloth were tapped into a 5-gallon plastic bucket for ease of counting of nymphs (at any instar).
The following average numbers of chinch bug nymphs were collected per sample per treatment 28 days after the insecticide applications were made.

[2] = test system: Fall armyworm, Spodoptera frugiperda (LAPHFR); experiment: Fall armyworm feeding damage on creeping bentgrass fairway; conditions: for % Reduction / % activity: alpha-cypermethrin 95, dinotefuran 600, combination 95 + 380 g ai/ha; for Fall Armyworm damage (%) (average feeding damage): five days after treatment, two applications, alpha-cypermethrin 95, dinotefuran 600, combination 95 + 380 g ai/hectare
From the text: as §1
A trial was established on a mature ‘L-93’ creeping bentgrass fairway. An initial application was made with a repeat application 8 days later. Fall armyworms were artificially infested at the test site eight hours after the second application. Ten living caterpillars were added to each plot and were protected within a PVC ring. Plots were rated five days after treatement for percent damage by caterpillar feeding within the ring area.

[3] = test system: Japanese beetle grub (Popillia japonica, POPIJA); experiment: Turf plot trial against Japanese beetle grubs, grub counts in soil cores; conditions: 85 DAT; for % Control / % activity: alpha-cypermethrin 95, dinotefuran 600, combination 95 + 380 g ai/ha; for Japanese Beetle Grub Counts (average per treatment per sample): alpha-cypermethrin 95, dinotefuran 600, combination 95 + 380 g ai/hectare
Experimental: as §1
The trial was conducted in plots consisting of a mix of Poa pratensis (~10%)—Lolium perenne (~60%)—Festuca arundinacea (~10%), and Agrostis stolonifera (<10%). Treatments were arranged in a randomized complete block design and replicated four times. Each replicate consisted of 3 arenas (~150 in^2). Each replicate was contained within a turfgrass plot measuring 9 ft^2. Treatments were applied in 813 liter/hectare spray volume.
To obtain consistent densities of white grub larvae, Japanese beetles (Popillia japonica) were captured in pheromone traps and seeded into the arenas to mate and oviposit.
20 males and 20 females were placed into 8 inch diameter PVC arenas (height=6 inch). The arena was driven 1 inch into the ground and fit with a mesh covering (324 openings/in2) to prevent beetles from escaping. After 3 days, the mesh coverings were removed, beetles removed, and 40 new beetles (20 males and 20 females) were placed into the arenas, followed by a third introduction. Nineteen days after the initial infestation date, the arenas were dismantled, and the turf was maintained as normal. Turf paint was used to mark the edges of turf where the arenas were located and reapplied as necessary.
White grub suppression was assessed 85 DAT by comparing the densities of grubs in treated and untreated plots. Three soil cores (total area=150 in2) were removed from each plot where the arenas were located using a large golf course cup cutter. Core soils were examined visually, by breaking the soil over a tray and looking for grubs (while in the field). The number of white grubs was pooled for the arenas in each replicate. Japanese beetle larvae present at time of evaluation (98.4%) were a mix of 2nd (42%) and 3rd (58%) instars.

[4] = test system: Masked chafer grub, Cyclocephala spp. (CYCCSP); experiment: Perennial ryegrass plot trial against masked chafer grubs (seeded adults), live grub counts; conditions: for % Control / % activity: alpha-cypermethrin 95, dinotefuran 600, combination 95 + 380 g ai/ha; for Masked Chafer grub counts (average live grubs per treatment per sample): 4 days after treatment, alpha-cypermethrin 95, dinotefuran 600, combination 95 + 380 g ai/hectare
Experimental: as §1
The study was conducted on perennial ryegrass. Individual plots were 6 ft×6 ft and arranged in a randomized complete block design with 4 replications. Adult Cyclocephala spp. (masked chafer) were collected when active and immediately placed inside covered PVC rings on each plot. Approximately 50 adult masked chafers were added to each plot throughout the active adult stage. The rings were removed 24-36 hours after insecticide application. After the treatment, the plots were irrigated immediately with approximately 0.125″ of water. Treatments were applied in water equivalent to 813 liters/hectare. The number of live grub larvae was assessed 4 days after treatment by removing a two-foot strip of sod cut to a […] each plot (12 ft2 per plot).

[5] = test system: Fall armyworm (Spodoptera frugiperda, LAPHFR); experiment: Golf course trial against fall armyworm, soapy water flush counts; conditions: for % Control / % activity: alpha-cypermethrin 95, dinotefuran 600, combination 95 + 380 g ai/ha; for Fall Armyworm worm Counts (average per treatment per sample, 1-sq-ft): 28 days after treatment, alpha-cypermethrin 95, dinotefuran 600, combination 95 + 380 g ai/hectare
Experimental: as §1
This trial was conducted at a golf course in an area planted with Hybrid bermudagrass, cv. ‘419’, with natural infestation of fall armyworm. The trial was laid out in 6 replications with each plot measuring 20×25 ft. Applications were made in a spray volume of 203 liters per hectare. The fall armyworms were about second or third instar when found. Fall armyworm density assessment was conducted as soapy water flush. About one gallon of soapy water was poured into an area marked with a 1-sq-ft PVC pipe square. Fall armyworms surfaced within 5 minutes and were counted in each 1-sq-ft area. Fall armyworm densities in a total of three squares (or 3 subsamples) were determined in each plot at each sampling data. Assessments were conducted at 28 days after treatment.

[6] = test system: Sod webworm (Herpetogramma phaeopteralis, PACYPH); experiment: Field trial against sod webworm, larvae counts; conditions: for % Control / % activity: alpha-cypermethrin 47.5, dinotefuran 600, combination 47.5 + 190 g ai/ha; for Sod Webworm Counts (average number of larvae per treatment per sample): 7 days after treatment, alpha-cypermethrin 47.5, dinotefuran 600, combination 47.5 + 190 g ai/hectare
From the text: as §1
Treatments were applied with a natural infestation of sod webworm. The experiment was conducted in four replications, utilizing 3×3 m2 plots. One application was made in 813 liters per hectare spray volume. po The treatments consisted of an untreated check, formulations of either alpha-cypermethrin at a use rate of 47.5 grams ai/hectare, dinotefuran at 600 gram ai/hectare or a combination of alpha-cypermethrin and dinotefuran at 47.5+190 grams ai/hectare.
Direct visual counts were made of sod webworm larvae in each plot 7 days after treatment.

[7] = test system: Masked chafer (Cyclocephala spp., CYCCSP); experiment: Turf trial against masked chafer grubs (Kentucky Bluegrass, natural infestation), larvae counts; conditions: for % Control / % activity: alpha-cypermethrin 95, dinotefuran 600, combination 95 + 380 g ai/ha; for Masked Chafer Grub Counts (average per treatment per sample, per 1 sq. ft.): 62 days after treatment, alpha-cypermethrin 95, dinotefuran 600, combination 95 + 380 g ai/hectare
Experimental: as §1
The trial was conducted with Kentucky Bluegrass as main turf variety, with a natural infestation of masked chafer grubs. Treatments were arranged in a randomized complete block design and replicated four times in plots measuring 24 ft^2.
Treatments were applied in 813 liter/hectare spray volume.
White grub control was determined by larvae counts 62 days after treatment. A sod cutter cut a strip down the center of each replicate and a shovel cut the stirp into a small square in the middle of each plot. The number of larvae in each 1 sq. ft. were counted.

[8] = test system: Black cut worm (Agrostis ypsilon, AGROYP); experiment: Field bioassay with caged black cutworm larvae on putting green; conditions: for % Control / % activity: alpha-cypermethrin 47.5, dinotefuran 600, combination 47.5 + 190 g ai/ha; for Black Cutworm Counts (average surviving larvae per treatment per sample, 10 larvae/plot): 19 days after treatment, alpha-cypermethrin 47.5, dinotefuran 600, combination 47.5 + 190 g ai/hectare
Experimental: as §1
The study was conducted on a creeping bentgrass/annual bluegrass putting green in a golf course. The study was a field bioassay where insect larvae were placed in cages at different intervals after applying insecticide treatments.
Applications were made to 4-foot by 6-foot plots replicated four times in 813 liter spray volume per hectare. Black cutworm (Agrostis ypsilon) larvae were caged in the turf at after the treatments were applied. Cages consisted of six-inch diameter metal cans. Two cages were inserted into each plot and five second-instar larvae were placed into each cage (total of 10 larvae/plot) before dusk. Window screen and a plastic louver were placed on top of the cages and held down with nails to secure the larvae. Larvae were caged for four days (96 hours) then a disclosing solution of 1 fl. oz. Joy Ultra dish soap in 1 gallon of water was used to flush surviving larvae 19 days after treatment.

[9] = 28 DAT, calculated from solo rates 95 and 600 g ai/ha

SMILES | % Control / % activity ([1]; 28 DAT) | Nymph Counts (average number of Chinch bug nymphs per treatment per sample) [1] | % Reduction / % activity ([2]; 5 DAT) | Fall Armyworm damage (%) (average feeding damage) [2] | % Control / % activity [3] | Japanese Beetle Grub Counts (average per treatment per sample) [3] | % Control / % activity ([4]; 4 DAT) | Masked Chafer grub counts (average live grubs per treatment per sample) [4] | % Control / % activity ([5]; 28 DAT) | Fall Armyworm worm Counts (average per treatment per sample, 1-sq-ft) [5] | % Control / % activity ([6]; 7 DAT) | Sod Webworm Counts (average number of larvae per treatment per sample) [6] | % Control / % activity ([7]; 62 DAT) | Masked Chafer Grub Counts (average per treatment per sample, per 1 sq. ft.) [7] | % Control / % activity ([8]; 19 DAT) | Black Cutworm Counts (average surviving larvae per treatment per sample, 10 larvae/plot) [8] | other results
CC1(C)C(C=C(Cl)Cl)C1C(=O)OC(C#N)c1cccc(Oc2ccccc2)c1 (racemic) [Alpha-cypermethrin, racemate comprising (R)-α-cyano-3-phenoxybenzyl (1S, 3S)-3-(2,2-dichlorovinyl)-2,2-dimethylcyclopropanecarboxy late; (S)-α-cyano-3-phenoxybenzyl (1R, 3R) (2,2-dichlorovinyl)-2,2-dimethylcyclopropanecarboxylate] | 81% | 6.0 | 94% | 1.25% | 0% | 2.25 | 18% | 18.5 | 57% | 1.39 | 57% | 2.5 | 91% | 0.25 | 80% | 1.75 | expected % activity (Colby) [1, 9]: 96%; expected % activity (Colby) ([2]; 5 DAT, calculated from solo rates 95 and 600 g ai/ha): 98%; expected % activity (Colby) ([3]; calculated from solo rates 95 and 600 g ai/ha): 0%; expected % activity (Colby) ([4]; 4 DAT, calculated from solo rates 95 and 600 g ai/ha): 29%; expected % activity (Colby) [5, 9]: 58%; expected % activity (Colby) ([6]; 7 DAT, calculated from solo rates 47.5 and 600 g ai/ha): 87%; expected % activity (Colby) ([7]; 62 DAT, calculated from solo rates 95 and 600 g ai/ha): 97%; expected % activity (Colby) ([8]; 19 DAT, calculated from solo rates 47.5 and 600 g ai/ha): 83%
CNC(=N[N+](=O)[O-])NCC1CCOC1 (racemic) [Dinotefuran, (RS)-1-methyl-2-nitro-3-(tetrahydro-3-furylmethyl) guanidine] | 81% | 5.8 | 75% | 5.00% | 0% | 2.00 | 13% | 19.5 | 2% | 3.17 | 60% | 2.3 | 64% | 1.00 | 17% | 7.25 | –
